Where two headings read alike, the source gives them in different places.
What was measured:
MCF-7 cells = assay: MTT antiproliferative assay, MCF-7; type: cell-based, human; conditions: Homo sapiens, MCF7, 48 h; for inhibition at 100 µM: read-out: Growth Inhibition at 100 μM (%) MCF-7; for IC50: read-out: IC50 MCF-7
Method: (§1) The antiproliferative activity of the target compounds against the panel of three different human cancer cell lines, liver (BEL-7402), colorectal (HCT-116), and breast (MCF-7) cell lines was evaluated using a standard MTT-based colorimetric assay. All cell lines were obtained from the Key Laboratory of Natural Resources and Functional Molecules of the Changbai Mountain (Yanbian University) and maintained in Dulbecco’s modified Eagle’s medium (DMEM) and RPMI Media 1640 (RPMI1640), supplemented with 10% foetal bovine serum (FBS) at 37 °C in a humidified atmosphere containing 5% CO2.
(§2) The cells were plated in 96-well plates at appropriate densities to ensure exponential growth throughout the experimental period (9 × 10^3 cells per well) and then allowed to adhere for 24 h. the cells were then treated for 48 h with each compound. After 48 h of incubation, 10 μL of MTT solution was added to each well to a final concentration of 2 mg/mL. the plates were then incubated for a further 4 h. After incubation, the MTT solution was removed and 150 μL of DMSO was added to each well for coloration. The plates were shaken vigorously for 10 min at room temperature to ensure complete solubilisation. The optometric density (OD) was read on a microplate reader (EL × 800, BioTek, Highland Park, Winooski, VT, USA) at 492 nm, and the data were subsequently analysed. The percentage of cell growth inhibition was calculated from the following Equation:
(§3) Inhibitory rate (%) = [1 − (ODtreated − ODblank)/(ODcontrol − ODblank)] × 100%
(§4) To obtain the antiproliferative activity of compounds 3a-3s and 4a-4d, the compounds were selected in the same way with four serial concentrations (1, 10, 50 and 100 μM) of those compounds. The optometric density (OD) reading was then used to calculate the IC50.

HCT-116 cells = assay: MTT antiproliferative assay, HCT-116; type: cell-based, human; conditions: Homo sapiens; for inhibition at 100 µM: read-out: Growth Inhibition at 100 μM (%) HCT-116; for IC50: read-out: IC50 HCT-116
Method: as §1, §2, §3, §4

BEL-7402 cells = assay: MTT antiproliferative assay, BEL-7402; type: cell-based, human; conditions: Homo sapiens; for inhibition at 100 µM: read-out: Growth Inhibition at 100 μM (%) BEL-7402; for IC50: read-out: IC50 BEL-7402
Method: as §1, §2, §3, §4

## Cc1cccc(-n2cc(C=C3C(=O)NC(=O)NC3=O)nn2)c1 [Compound 3q, 5-((1-m-tolyl-1H-1,2,3-triazol-4-yl)methylene)pyrimidine-2,4,6(1H,3H,5H)-trione]
MCF-7 cells
  inhibition at 100 µM: 91.9 ± 2.4%
  IC50: 29.8 ± 2.01 µM
HCT-116 cells; HCT-116, 48 h
  inhibition at 100 µM: 94.8 ± 6.3%
  IC50: 32.8 ± 1.9 µM
other
  melting point: 250 °C
BEL-7402 cells; Bel-7402, 48 h
  inhibition at 100 µM: 23.7 ± 2.1%
  IC50: > 100 µM

## O=C1NC(=O)C(=Cc2cn(-c3ccc(Cl)c(Cl)c3)nn2)C(=O)N1 [Compound 3i, 5-((1-(3,4-dichlorophenyl)-1H-1,2,3-triazol-4-yl)methylene)pyrimidine-2,4,6(1H,3H,5H)-trione]
MCF-7 cells
  inhibition at 100 µM: 14.2 ± 1.5%
  IC50: > 100 µM
HCT-116 cells; HCT-116, 48 h
  inhibition at 100 µM: 69.3 ± 2.9%
  IC50: 55.2 ± 2.31 µM
other
  melting point: 250 °C
BEL-7402 cells; Bel-7402, 48 h
  inhibition at 100 µM: 47.2 ± 4.7%
  IC50: > 100 µM

## O=C1NC(=O)C(=Cc2cn(-c3ccc(F)cc3)nn2)C(=O)N1 [Compound 3d, 5-((1-(4-fluorophenyl)-1H-1,2,3-triazol-4-yl)methylene)pyrimidine-2,4,6(1H,3H,5H)-trione]
MCF-7 cells
  inhibition at 100 µM: 34.1 ± 2.3%
HCT-116 cells; HCT-116, 48 h
  inhibition at 100 µM: 31.6 ± 1.9%
other
  melting point: 250 °C
BEL-7402 cells; Bel-7402, 48 h
  inhibition at 100 µM: 31.9 ± 2.8%

## Cc1nn(-c2cccc(F)c2)c(C)c1C=C1C(=O)NC(=O)NC1=O [Compound 4b, 5-((1-(3-fluorophenyl)-3,5-dimethyl-1H-pyrazol-4-yl)methylene)pyrimidine-2,4,6(1H,3H,5H)-trione]
MCF-7 cells
  inhibition at 100 µM: < 5%
HCT-116 cells; HCT-116, 48 h
  inhibition at 100 µM: 9.1 ± 1.2%
other
  melting point: 250 °C
BEL-7402 cells; Bel-7402, 48 h
  inhibition at 100 µM: 14.7 ± 1.2%

## Cc1ccc(-n2nc(C)c(C=C3C(=O)NC(=O)NC3=O)c2C)cc1 [Compound 4d, 5-((3,5-dimethyl-1-p-tolyl-1H-pyrazol-4-yl)methylene)pyrimidine-2,4,6(1H,3H,5H)-trione]
MCF-7 cells
  inhibition at 100 µM: < 5%
HCT-116 cells; HCT-116, 48 h
  inhibition at 100 µM: 28.4 ± 3%
other
  melting point: 250 °C
BEL-7402 cells; Bel-7402, 48 h
  inhibition at 100 µM: 38.1 ± 1.3%

## Cc1nn(-c2cccc(Cl)c2)c(C)c1C=C1C(=O)NC(=O)NC1=O [Compound 4c, 5-((1-(3-chlorophenyl)-3,5-dimethyl-1H-pyrazol-4-yl)methylene)pyrimidine-2,4,6(1H,3H,5H)-trione]
MCF-7 cells
  inhibition at 100 µM: 15.5 ± 1.1%
  IC50: > 100 µM
HCT-116 cells; HCT-116, 48 h
  inhibition at 100 µM: 58.7 ± 5.2%
  IC50: 47.5 ± 3.21 µM
other
  melting point: 250 °C
BEL-7402 cells; Bel-7402, 48 h
  inhibition at 100 µM: 64 ± 2.1%
  IC50: 48.2 ± 0.78 µM

## O=C1NC(=O)C(=Cc2cn(-c3ccccc3Cl)nn2)C(=O)N1 [Compound 3e, 5-((1-(2-chlorophenyl)-1H-1,2,3-triazol-4-yl)methylene)pyrimidine-2,4,6(1H,3H,5H)-trione]
MCF-7 cells
  inhibition at 100 µM: 19.8 ± 1.5%
HCT-116 cells; HCT-116, 48 h
  inhibition at 100 µM: 14.8 ± 0.9%
other
  melting point: 250 °C
BEL-7402 cells; Bel-7402, 48 h
  inhibition at 100 µM: 39.6 ± 4.1%

## O=C1NC(=O)C(=Cc2cn(-c3ccccc3F)nn2)C(=O)N1 [Compound 3b, 5-((1-(2-fluorophenyl)-1H-1,2,3-triazol-4-yl)methylene)pyrimidine-2,4,6(1H,3H,5H)-trione]
MCF-7 cells
  inhibition at 100 µM: 27.5 ± 1.6%
  IC50: > 100 µM
HCT-116 cells; HCT-116, 48 h
  inhibition at 100 µM: 67.6 ± 3.8%
  IC50: 78.2 ± 2.34 µM
other
  melting point: 250 °C
BEL-7402 cells; Bel-7402, 48 h
  inhibition at 100 µM: 34.1 ± 4.3%
  IC50: > 100 µM

## Cc1ccc(-n2cc(C=C3C(=O)NC(=O)NC3=O)nn2)cc1 [Compound 3r, 5-((1-p-tolyl-1H-1,2,3-triazol-4-yl)methylene)pyrimidine-2,4,6(1H,3H,5H)-trione]
MCF-7 cells
  inhibition at 100 µM: < 5%
HCT-116 cells; HCT-116, 48 h
  inhibition at 100 µM: 52.5 ± 2%
other
  melting point: 250 °C
BEL-7402 cells; Bel-7402, 48 h
  inhibition at 100 µM: 39.8 ± 3.1%

## O=C1NC(=O)C(=Cc2cn(-c3ccccc3Br)nn2)C(=O)N1 [Compound 3j, 5-((1-(2-bromophenyl)-1H-1,2,3-triazol-4-yl)methylene)pyrimidine-2,4,6(1H,3H,5H)-trione]
MCF-7 cells
  inhibition at 100 µM: 42.7 ± 2.6%
HCT-116 cells; HCT-116, 48 h
  inhibition at 100 µM: 46.3 ± 3.4%
other
  melting point: 250 °C
BEL-7402 cells; Bel-7402, 48 h
  inhibition at 100 µM: 36.8 ± 2.1%

## O=C1NC(=O)C(=Cc2cn(-c3ccc(Br)cc3)nn2)C(=O)N1 [Compound 3l, 5-((1-(4-bromophenyl)-1H-1,2,3-triazol-4-yl)methylene)pyrimidine-2,4,6(1H,3H,5H)-trione]
MCF-7 cells
  inhibition at 100 µM: < 5%
HCT-116 cells; HCT-116, 48 h
  inhibition at 100 µM: 49.8 ± 3.8%
other
  melting point: 250 °C
BEL-7402 cells; Bel-7402, 48 h
  inhibition at 100 µM: 44.8 ± 3.8%

## O=C1NC(=O)C(=Cc2cn(Cc3ccccc3)c3ccccc23)C(=O)N1 [A, 5-((1-benzyl-1H-indol-3-yl)methylene)pyrimidine-2,4,6 (1H,3H,5H)-trione, reference compound]
MCF-7 cells
  inhibition at 100 µM: 11.8 ± 1%
HCT-116 cells; HCT-116, 48 h
  inhibition at 100 µM: 26.2 ± 1.8%
BEL-7402 cells; Bel-7402, 48 h
  inhibition at 100 µM: 19.6 ± 2.1%

## O=C1NC(=O)C(=Cc2cn(-c3ccccc3)nn2)C(=O)N1 [Compound 3a, 5((1-phenyl-1H-1,2,3-triazol-4-yl)methylene)pyrimidine-2,4,6(1H,3H,5H)-trione]
MCF-7 cells
  inhibition at 100 µM: 30.9 ± 2.6%
HCT-116 cells; HCT-116, 48 h
  inhibition at 100 µM: 42.7 ± 2.5%
other
  melting point: 250 °C
BEL-7402 cells; Bel-7402, 48 h
  inhibition at 100 µM: 54 ± 3.4%

## Cc1nn(-c2ccccc2)c(C)c1C=C1C(=O)NC(=O)NC1=O [Compound 4a, 5-((3,5-dimethyl-1-phenyl-1H-pyrazol-4-yl)methylene)pyrimidine-2,4,6(1H,3H,5H)-trione]
MCF-7 cells
  inhibition at 100 µM: < 5%
HCT-116 cells; HCT-116, 48 h
  inhibition at 100 µM: 30.9 ± 3.1%
other
  melting point: 250 °C
BEL-7402 cells; Bel-7402, 48 h
  inhibition at 100 µM: 38.7 ± 1%

## COc1ccccc1-n1cc(C=C2C(=O)NC(=O)NC2=O)nn1 [Compound 3m, 5-((1-(2-methoxyphenyl)-1H-1,2,3-triazol-4-yl)methylene)pyrimidine-2,4,6(1H,3H,5H)-trione]
MCF-7 cells
  inhibition at 100 µM: 7.9 ± 1.1%
HCT-116 cells; HCT-116, 48 h
  inhibition at 100 µM: 44.2 ± 3.4%
other
  melting point: 250 °C
BEL-7402 cells; Bel-7402, 48 h
  inhibition at 100 µM: 25.6 ± 2.1%

## O=c1[nH]cc(F)c(=O)[nH]1 [Compound 5-FU, 5-fluorouracil, reference compound]
HCT-116 cells; HCT-116, 48 h, MTT
  IC50: 24.8 ± 0.78 µM
BEL-7402 cells; Bel-7402, 48 h, MTT
  IC50: 21.3 ± 0.56 µM

## COc1ccc(-n2cc(C=C3C(=O)NC(=O)NC3=O)nn2)cc1OC [Compound 3p, 5-((1-(3,4-dimethoxyphenyl)-1H-1,2,3-triazol-4-yl)methylene)pyrimidine-2,4,6(1H,3H,5H)-trione]
MCF-7 cells
  inhibition at 100 µM: 18.6 ± 1.7%
HCT-116 cells; HCT-116, 48 h
  inhibition at 100 µM: 43.9 ± 2.9%
other
  melting point: 250 °C
BEL-7402 cells; Bel-7402, 48 h
  inhibition at 100 µM: 38 ± 1.9%

## O=C1CC(=O)NC(=O)N1 [Barbituric acid]
MCF-7 cells
  inhibition at 100 µM: < 5%
  IC50: > 100 µM
HCT-116 cells; HCT-116, 48 h
  inhibition at 100 µM: 14.3 ± 2.2%
  IC50: > 100 µM
BEL-7402 cells; Bel-7402, 48 h
  inhibition at 100 µM: 11.7 ± 1%
  IC50: > 100 µM

## COc1cccc(-n2cc(C=C3C(=O)NC(=O)NC3=O)nn2)c1 [Compound 3n, 5-((1-(3-methoxyphenyl)-1H-1,2,3-triazol-4-yl)methylene)pyrimidine-2,4,6(1H,3H,5H)-trione]
MCF-7 cells
  inhibition at 100 µM: 23.3 ± 3.5%
  IC50: > 100 µM
HCT-116 cells; HCT-116, 48 h
  inhibition at 100 µM: 67.1 ± 5.6%
  IC50: 30.7 ± 2.1 µM
other
  melting point: 250 °C
BEL-7402 cells; Bel-7402, 48 h
  inhibition at 100 µM: 36.7 ± 19%
  IC50: > 100 µM

## COc1ccc(-n2cc(C=C3C(=O)NC(=O)NC3=O)nn2)cc1 [Compound 3o, 5-((1-(4-methoxyphenyl)-1H-1,2,3-triazol-4-yl)methylene)pyrimidine-2,4,6(1H,3H,5H)-trione]
MCF-7 cells
  inhibition at 100 µM: 22.6 ± 2.7%
HCT-116 cells; HCT-116, 48 h
  inhibition at 100 µM: 7.9 ± 0.6%
other
  melting point: 250 °C
BEL-7402 cells; Bel-7402, 48 h
  inhibition at 100 µM: 28.4 ± 3.1%
